Patent US8318504B2, “MRP2 efflux pathway prognostic method” (priority 2009, dated 2012)

Key:
OATP2B1 = molecular target: T1, OATP2B1 (Homo sapiens, UniProt O94956); assay: Inhibition by CLF of estrone-3-sulfate transport in CHO cells expressing OATP2B1; format: cell-based; details: 0, 5 or 50 μmol/L CLF, 1 μmol/L estrone-3-sulfate
T1 construct: expressed in transfected cells; host or cells: CHO cells (stably transfected; Treiber et al. 2007)
T1 sequence (O94956 1-709): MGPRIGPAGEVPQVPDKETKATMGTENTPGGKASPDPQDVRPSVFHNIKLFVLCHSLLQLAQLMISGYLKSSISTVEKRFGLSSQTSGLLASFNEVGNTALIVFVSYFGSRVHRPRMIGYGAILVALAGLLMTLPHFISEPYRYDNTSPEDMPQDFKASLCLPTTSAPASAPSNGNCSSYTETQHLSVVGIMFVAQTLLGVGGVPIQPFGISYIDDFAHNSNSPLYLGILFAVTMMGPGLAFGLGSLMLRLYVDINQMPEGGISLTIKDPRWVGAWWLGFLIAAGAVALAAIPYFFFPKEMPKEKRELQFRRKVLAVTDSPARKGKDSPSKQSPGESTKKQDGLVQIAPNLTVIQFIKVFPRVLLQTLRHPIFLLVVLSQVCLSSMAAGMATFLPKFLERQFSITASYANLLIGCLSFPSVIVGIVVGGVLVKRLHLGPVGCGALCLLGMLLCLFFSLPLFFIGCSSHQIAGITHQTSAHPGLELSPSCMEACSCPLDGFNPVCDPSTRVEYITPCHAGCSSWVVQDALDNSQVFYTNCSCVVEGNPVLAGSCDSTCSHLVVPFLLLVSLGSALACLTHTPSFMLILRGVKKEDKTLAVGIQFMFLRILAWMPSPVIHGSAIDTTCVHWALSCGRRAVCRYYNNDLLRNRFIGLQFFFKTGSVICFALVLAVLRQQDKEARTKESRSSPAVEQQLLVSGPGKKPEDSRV
Method: FIGS. 3A-3D relate to inhibition of transport activity of hepatocellular uptake transporters by CLF. CHO cells expressing NTCP, OATP1B1, OATP1B3 and OATP2B1 were incubated with 0, 5 or 50 μmol/L CLF and with the substrates, 2.5 μmol/L TC, 1 μmol/L estrone-3-sulfate, 10 μmol/L TC and 1 μmol/L estrone-3-sulfate, respectively. Data represent means±SD of triplicate determinations.
For all transport experiments, cells grown on 3 cm culture dishes were cultured for 24 hours in media supplemented with 5 mmol/L sodium-butyrate to increase expression levels of transfected transporters [Palermo D P et al., J Biotechnol 1991 June; 19(1):35-47]. • Transport experiments with uptake of radioactively labeled substrates: These experiments were performed as described by Huber R D et al. [Am J Physiol Cell Physiol 2007 February; 292(2):C795-C806]. • Transport experiments with uptake of CLF: Uptake was performed in the same buffers as for the radioactive substrates above. […] After complete solubilization, 1.5 ml was used to measure fluorescence in a Perkin-Elmer LS-5 luminescence-spectrometer set at λexe 486 nm (slit 10 nm) and λem 520 nm (slit 5 nm). Protein was determined with the bicinchoninic acid method using a kit from Interchim (Montfuçon, France). […]

ABCB11 = molecular target: T2, ABCB11 (Homo sapiens, UniProt O95342); assay: CLF inhibition of TC transport into ABCB11 containing Sf21 membrane vesicles; format: biochemical; details: ATP-dependent transport, read-out: concentration of CLF at which half maximal TC transport was observed
T2 construct: His tag (inferred from the anti-his probe used on the Western blot); made in house; host or cells: Sf21 insect cells, baculovirus (gift from Thompson); plasma membrane vesicles
Method: FIGS. 5A and 5B show CLF inhibition of DNP-SG and TC transport into ABCC2 (A) and ABCB11 (B) protein containing Sf21 membrane vesicles respectively. The values are expressed as a percentage of maximal ATP-dependent transport. Significance was tested using two-sided Student's t-test: *P<0.05 for transport in the presence vs. absence of inhibitor.
The production of recombinant baculovirus was as described by de Waart et al. [Liver Int 2006 April; 26(3):362-368]. ABCC3 and ABCG2-recombinant baculovirus were a kind gift from Borst [Breedveld P. et al., Cancer Res 2004 Aug. 15; 64(16):5804-5811 and Borst P. et al., J Biol Chem 2001 Dec. 7; 276(49):46400-46407.]. ABCB11-recombinant baculovirus was a kind gift from Thompson [Thompson R J et al., Gastroenterology 2002 November; 123(5):1649-1658]. Sf21 cells grown at 27° C. were infected with ABCB11, ABCC2, ABCC3 and ABCG2-cDNA containing baculovirus. Cells were harvested at 2-4 days after infection. […]
Transport studies with membrane vesicles were performed using the rapid filtration technique as described by Heijn M et al. [Am J Physiol 1992 January; 262(1 Pt 1):C104-C110]. Radiolabel was measured with a scintillation counter. […] Samples were pipetted in 96-well plates (Kartell, Noviglio, Italy) and the amount CLF quantitated by measurement of fluorescence at λexe 485 nm and λcm 520 nm using a NovoStar (BMG-labtech, Offenburg, Germany).

T2 sequence (O95342 whole entry): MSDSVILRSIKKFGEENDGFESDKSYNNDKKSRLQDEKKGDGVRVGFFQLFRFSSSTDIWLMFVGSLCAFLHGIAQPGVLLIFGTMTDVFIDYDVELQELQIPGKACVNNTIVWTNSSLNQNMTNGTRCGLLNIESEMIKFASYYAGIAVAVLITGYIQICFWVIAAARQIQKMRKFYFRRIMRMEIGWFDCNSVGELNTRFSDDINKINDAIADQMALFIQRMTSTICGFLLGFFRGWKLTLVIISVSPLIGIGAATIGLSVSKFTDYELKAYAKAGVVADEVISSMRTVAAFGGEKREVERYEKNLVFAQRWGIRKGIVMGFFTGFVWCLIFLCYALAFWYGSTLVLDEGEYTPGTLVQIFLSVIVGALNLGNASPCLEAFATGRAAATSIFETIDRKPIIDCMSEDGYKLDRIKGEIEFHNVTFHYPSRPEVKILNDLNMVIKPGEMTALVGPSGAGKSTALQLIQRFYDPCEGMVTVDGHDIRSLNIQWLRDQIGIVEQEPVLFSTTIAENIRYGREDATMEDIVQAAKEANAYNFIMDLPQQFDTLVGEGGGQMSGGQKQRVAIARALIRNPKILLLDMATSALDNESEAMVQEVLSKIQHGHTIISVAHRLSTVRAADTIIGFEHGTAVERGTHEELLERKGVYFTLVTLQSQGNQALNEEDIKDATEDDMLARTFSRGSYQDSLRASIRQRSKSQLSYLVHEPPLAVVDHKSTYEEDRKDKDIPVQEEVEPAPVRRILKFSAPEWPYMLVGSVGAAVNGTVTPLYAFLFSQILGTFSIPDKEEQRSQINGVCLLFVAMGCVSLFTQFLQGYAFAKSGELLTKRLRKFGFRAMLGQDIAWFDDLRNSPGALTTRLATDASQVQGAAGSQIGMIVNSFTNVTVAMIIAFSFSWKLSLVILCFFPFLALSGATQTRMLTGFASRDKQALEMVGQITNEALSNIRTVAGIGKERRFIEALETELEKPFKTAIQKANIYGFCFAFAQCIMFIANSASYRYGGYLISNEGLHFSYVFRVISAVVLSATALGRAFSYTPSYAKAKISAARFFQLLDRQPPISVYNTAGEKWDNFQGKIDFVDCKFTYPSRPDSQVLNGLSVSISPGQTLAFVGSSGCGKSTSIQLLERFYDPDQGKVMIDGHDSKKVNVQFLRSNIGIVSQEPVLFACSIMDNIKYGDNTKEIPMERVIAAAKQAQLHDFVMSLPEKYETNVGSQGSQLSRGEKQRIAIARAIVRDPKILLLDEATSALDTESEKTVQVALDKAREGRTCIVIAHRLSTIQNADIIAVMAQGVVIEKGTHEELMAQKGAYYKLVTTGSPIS

For `CC(CCC(=O)NC(CCCCNC(=S)Nc1ccc(-c2c3ccc(=O)cc-3oc3cc(O)ccc23)c(C(=O)O)c1)C(=O)O)C1CCC2C3C(O)CC4CC(O)CCC4(C)C3CC(O)C12C` (centres unmarked) [CLF, cholyl lysyl fluorescein], the “inhibition of transport of estrone-3-sulfate mediated by OATP2B1 by CLF” value (OATP2B1) was “much less efficiently” and the IC50 (ABCB11) was ~10 µM.
